What was measured:
Format in all cases: biochemical
[1] = biological target: T1, CFA synthase (Escherichia coli, UniProt P0A9H7); assay: turnover, LC-MS/MS and […]-NMR; settings: fluoromethyl donor; co-substrate dOPG
T1 construct: construct only in supplement

[2] = biological target: T2, TPMT (Homo sapiens, UniProt P51580); assay: fluoromethyl transfer kinetics; settings: fluoromethyl donor; thiol co-substrate as in Table 1
T2 construct: construct only in supplement
T2 sequence (P51580 1-245): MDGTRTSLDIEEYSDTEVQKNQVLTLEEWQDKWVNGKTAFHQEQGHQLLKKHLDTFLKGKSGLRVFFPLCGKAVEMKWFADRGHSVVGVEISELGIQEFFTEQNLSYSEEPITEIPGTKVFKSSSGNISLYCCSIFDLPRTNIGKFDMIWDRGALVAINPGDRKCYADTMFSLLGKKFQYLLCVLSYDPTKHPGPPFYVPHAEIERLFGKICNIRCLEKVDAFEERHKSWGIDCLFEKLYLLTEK

[3] = biological target: T2, TPMT; assay: methyl transfer kinetics; settings: methyl donor; thiol co-substrate as in Table 1

T1 sequence (P0A9H7 2-382): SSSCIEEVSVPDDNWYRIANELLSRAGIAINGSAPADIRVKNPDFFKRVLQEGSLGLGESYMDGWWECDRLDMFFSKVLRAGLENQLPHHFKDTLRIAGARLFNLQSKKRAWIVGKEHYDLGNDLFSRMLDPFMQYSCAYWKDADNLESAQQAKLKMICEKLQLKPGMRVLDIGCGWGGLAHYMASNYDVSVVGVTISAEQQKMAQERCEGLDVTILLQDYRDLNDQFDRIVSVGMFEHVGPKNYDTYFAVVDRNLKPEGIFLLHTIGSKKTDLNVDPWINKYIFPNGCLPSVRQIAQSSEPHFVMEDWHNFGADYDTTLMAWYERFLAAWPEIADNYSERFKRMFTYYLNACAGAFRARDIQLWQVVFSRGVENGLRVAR

Nc1ncnc2c1ncn2[C@@H]1O[C@H](C[Te+](CF)CC[C@H](N)C(=O)O)[C@@H](O)[C@H]1O [FMeTeSAM]
turnover, LC-MS/MS and 19F-NMR [1]: E. coli CFA synthase can use FMeTeSAM to catalyze cyclopropanation | Km [2]: the Km for FMeTeSAM is nearly the same as that for SAM

C[S+](CC[C@H](N)C(=O)O)C[C@H]1O[C@@H](n2cnc3c(N)ncnc32)[C@H](O)[C@@H]1O (stereo partly drawn) [SAM]
Km [3]: the Km for FMeTeSAM is nearly the same as that for SAM
